What was measured:
in vitro = settings: rat, serum, pH 7.4
[1] = 48 h
[2] = 24 h

SMILES	remaining at 24 h (in vitro)	remaining at 48 h (in vitro)	peptide remaining intact in rat serum [1]	peptide remaining intact in human plasma [2]
CC(C)C[C@H](NC(=O)[C@H](CC(=O)O)NC(=O)CNC(=O)[C@H](CCCNC(=N)N)NC(=O)[C@H](CC(C)C)NC(=O)[C@H](CC(N)=O)NC(=O)[C@@H]1CCCN1C(=O)[C@@H](NC(=O)[C@H](C)NC(=O)[C@H](CC(N)=O)NC(=O)COCCOCCOCCOCCOCCN)C(C)C)C(=O)N[C@@H](CCC(N)=O)C(=O)N[C@H](C(=O)N[C@@H](CC(C)C)C(=O)N[C@@H](C)C(=O)N[C@@H](CCC(N)=O)C(=O)N[C@@H](CCCCN)C(=O)N[C@H](C(=O)N[C@@H](C)C(=O)N[C@@H](CCCNC(=N)N)C(=O)N[C@H](C(=O)O)[C@@H](C)O)C(C)C)C(C)C [Compound 18]	~60%	~40%		
CC(C)C[C@H](NC(=O)[C@H](CC(=O)O)NC(=O)CNC(=O)[C@H](CCCNC(=N)N)NC(=O)[C@H](CC(C)C)NC(=O)[C@H](CC(N)=O)NC(=O)[C@@H]1CCCN1C(=O)[C@@H](NC(=O)[C@H](C)NC(=O)[C@H](CC(N)=O)NC(=O)COCCOCCOCCOCCOCCOCCOCCOCCN)C(C)C)C(=O)N[C@@H](CCC(N)=O)C(=O)N[C@H](C(=O)N[C@@H](CC(C)C)C(=O)N[C@@H](C)C(=O)N[C@@H](CCC(N)=O)C(=O)N[C@@H](CCCCN)C(=O)N[C@H](C(=O)N[C@@H](C)C(=O)N[C@@H](CCCNC(=N)N)C(=O)N[C@H](C(=O)O)[C@@H](C)O)C(C)C)C(C)C [Compound 19]	> 70%		> 58%	
CC(C)C[C@H](NC(=O)[C@H](CC(=O)O)NC(=O)CNC(=O)[C@H](CCCNC(=N)N)NC(=O)[C@H](CC(C)C)NC(=O)[C@H](CC(N)=O)NC(=O)[C@@H]1CCCN1C(=O)[C@@H](NC(=O)[C@H](C)NC(=O)[C@H](CC(N)=O)NC(=O)CCOCCOCCOCCOCCOCCN)C(C)C)C(=O)N[C@@H](CCC(N)=O)C(=O)N[C@H](C(=O)N[C@@H](CC(C)C)C(=O)N[C@@H](C)C(=O)N[C@@H](CCC(N)=O)C(=O)N[C@@H](CCCCN)C(=O)N[C@H](C(=O)N[C@@H](C)C(=O)N[C@@H](CCCNC(=N)N)C(=O)N[C@H](C(=O)O)[C@@H](C)O)C(C)C)C(C)C [Compound 20]	~60%	~40%		
CC(C)C[C@H](NC(=O)[C@H](CC(=O)O)NC(=O)CNC(=O)[C@H](CCCNC(=N)N)NC(=O)[C@H](CC(C)C)NC(=O)[C@H](CC(N)=O)NC(=O)[C@@H]1CCCN1C(=O)[C@@H](NC(=O)[C@H](C)NC(=O)[C@H](CC(N)=O)NC(=O)CCOCCOCCOCCOCCOCCOCCOCCOCCOCCOCCOCCOCCOCCOCCOCCOCCOCCOCCOCCOCCN)C(C)C)C(=O)N[C@@H](CCC(N)=O)C(=O)N[C@H](C(=O)N[C@@H](CC(C)C)C(=O)N[C@@H](C)C(=O)N[C@@H](CCC(N)=O)C(=O)N[C@@H](CCCCN)C(=O)N[C@H](C(=O)N[C@@H](C)C(=O)N[C@@H](CCCNC(=N)N)C(=O)N[C@H](C(=O)O)[C@@H](C)O)C(C)C)C(C)C [Compound 23]	~90%	> 70%		
CC(C)C[C@H](NC(=O)[C@H](CC(=O)O)NC(=O)CNC(=O)[C@H](CCCNC(=N)N)NC(=O)[C@H](CC(C)C)NC(=O)[C@H](CC(N)=O)NC(=O)[C@@H]1CCCN1C(=O)[C@@H](NC(=O)[C@H](CCCCNC(=O)CCCC[C@@H]1SC[C@@H]2NC(=O)N[C@@H]21)NC(=O)[C@H](CC(N)=O)NC(=O)COCCOCCNC(=O)CN(CCN(CCN(CC(=O)O)CC(=O)O)CC(=O)O)CC(=O)O)C(C)C)C(=O)N[C@@H](CCC(N)=O)C(=O)N[C@H](C(=O)N[C@@H](CC(C)C)C(=O)N[C@@H](C)C(=O)N[C@@H](CCC(N)=O)C(=O)N[C@@H](CCCCN)C(=O)N[C@H](C(=O)N[C@@H](C)C(=O)N[C@@H](CCCNC(=N)N)C(=O)N[C@H](C(=O)O)[C@@H](C)O)C(C)C)C(C)C [Compound 25]				around 80%
CC(C)C[C@H](NC(=O)[C@H](CC(=O)O)NC(=O)CNC(=O)[C@H](CCCNC(=N)N)NC(=O)[C@H](CC(C)C)NC(=O)[C@H](CC(N)=O)NC(=O)[C@@H]1CCCN1C(=O)[C@@H](NC(=O)[C@H](CCCCNC(=O)CCCC[C@@H]1SC[C@@H]2NC(=O)N[C@@H]21)NC(=O)[C@H](CC(N)=O)NC(=O)CCOCCOCCOCCOCCOCCOCCOCCOCCOCCOCCOCCOCCOCCOCCOCCOCCOCCOCCOCCOCCNC(=O)CN(CCN(CCN(CC(=O)O)CC(=O)O)CC(=O)O)CC(=O)O)C(C)C)C(=O)N[C@@H](CCC(N)=O)C(=O)N[C@H](C(=O)N[C@@H](CC(C)C)C(=O)N[C@@H](C)C(=O)N[C@@H](CCC(N)=O)C(=O)N[C@@H](CCCCN)C(=O)N[C@H](C(=O)N[C@@H](C)C(=O)N[C@@H](CCCNC(=N)N)C(=O)N[C@H](C(=O)O)[C@@H](C)O)C(C)C)C(C)C [Compound 30]				around 80%

From publication PMC9316855 (Molecules, 2022)
